# The source made the active and inactive calls. No cut-off for these calls is given here.
# Columns and labels:
# [1] = system: Hep 3B2; assay: Induction of apoptosis in human Hep3B cells assessed as viable cells at 10 nM incubated for 48 hrs by Annexin V-FITC/PI staining based flow cytometry method (reference value: 94.0%); format: functional; conditions: read-out: Activity
# [2] = system: Hep 3B2; assay: Induction of autophagy in human Hep3B cells assessed as rescue of mTOR phosphorylation level at upto 10 nM incubated for 48 hrs in presence of gamabufotalin by immunoblot method; format: functional, cell-based
# [3] = system: Huh-7; assay: Induction of autophagic flux in human Huh-7 cells harbouring mCherry-egfp-LC3 assessed as reduction in number of red puncta ratio at 10 nM incubated for 15 mins in presence of gamabufotalin by laser scanning confocal microscopic analysis; format: functional, cell-based
# [4] = system: Hep 3B2; assay: Induction of apoptosis in human Hep3B cells assessed as viable cells at 25 nM incubated for 48 hrs by Annexin V-FITC/PI staining based flow cytometry method (reference value: 93.3%); format: functional; conditions: read-out: Activity
# [5] = system: Hep 3B2; assay: Induction of apoptosis in human Hep3B cells assessed as late apoptotic cells at 15 nM incubated for 48 hrs by Annexin V-FITC/PI staining based flow cytometry method (reference value: 2.6%); format: functional
# [6] = system: Huh-7; assay: Induction of apoptosis in human Huh-7 cells assessed as late apoptotic cells at 20 nM incubated for 48 hrs by Annexin V-FITC/PI staining based flow cytometry method (reference value: 2.2%); format: functional
# [7] = system: Huh-7; assay: Induction of apoptosis in human Huh-7 cells assessed as late apoptotic cells at 25 nM incubated for 48 hrs by Annexin V-FITC/PI staining based flow cytometry method (reference value: 2.2%); format: functional
# [8] = system: Hep 3B2; assay: Induction of apoptosis in human Hep3B cells assessed as increase in cleaved PARP expression at upto 25 nM incubated for 48 hrs by Western blot analysis; format: functional, cell-based
# [9] = system: Huh-7; assay: Induction of apoptosis in human Huh-7 cells assessed as early apoptotic cells at 25 nM measured after 48 hrs by annexin V-FITC/Propidium iodide staining based flow cytometric analysis (reference value: 2.2%); format: functional
# [10] = system: Huh-7; assay: Induction of apoptosis in human Huh-7 cells assessed as late apoptotic cells at 25 nM measured after 48 hrs by annexin V-FITC/Propidium iodide staining based flow cytometric analysis (reference value: 6.1%); format: functional
# [11] = system: Huh-7; assay: Induction of apoptosis in human Huh-7 cells assessed as necrotic cells at 25 nM measured after 48 hrs in presence of z-VAD-FMK by annexin V-FITC/Propidium iodide staining based flow cytometric analysis (reference value: 0.0%); format: functional
# [12] = system: Hep 3B2; assay: Induction of autophagic flux in human Hep3B cells harbouring mCherry-egfp-LC3 assessed as increase in yellow puncta at 25 nM incubated for 15 mins by laser scanning confocal microscopic analysis; format: functional, cell-based
# [13] = system: Hep 3B2; assay: Induction of autophagic flux in human Hep3B cells harbouring mCherry-egfp-LC3 assessed as increase in red puncta at 25 nM incubated for 15 mins by laser scanning confocal microscopic analysis; format: functional, cell-based
# [14] = system: Huh-7; assay: Induction of autophagic flux in human Huh-7 cells harbouring mCherry-egfp-LC3 assessed as increase in yellow puncta at 25 nM incubated for 15 mins by laser scanning confocal microscopic analysis; format: functional, cell-based
# [15] = system: Huh-7; assay: Induction of autophagic flux in human Huh-7 cells harbouring mCherry-egfp-LC3 assessed as increase in red puncta at 25 nM incubated for 15 mins by laser scanning confocal microscopic analysis; format: functional, cell-based
# [16] = system: Huh-7; assay: Induction of autophagic flux in human Huh-7 cells assessed as increase in LC3-II expression at upto 25 nM incubated for 48 hrs by Western blot analysis; format: functional, cell-based
# [17] = system: Huh-7; assay: Induction of autophagic flux in human Huh-7 cells assessed as increase in LC3-I expression at upto 25 nM incubated for 48 hrs by Western blot analysis; format: functional, cell-based
# [18] = system: Hep 3B2; assay: Induction of autophagic flux in human Hep3B cells assessed as rescue of p62 at 25 uM incubated for 48 hrs in presence of chloroquine by Western blot analysis; format: functional, cell-based
# [19] = system: Hep 3B2; assay: Induction of autophagic flux in human Hep3B cells assessed as rescue of LC3-I accumulation at 25 uM incubated for 48 hrs in presence of chloroquine by Western blot analysis; format: functional, cell-based
# [20] = system: Hep 3B2; assay: Induction of apoptosis in human Hep3B cells assessed as viable cells at 25 nM incubated for 48 hrs in presence of chloroquine by Annexin V-FITC/PI staining based flow cytometry method (reference value: 94.0%); format: functional; conditions: read-out: Activity
# [21] = system: Hep 3B2; assay: Induction of apoptosis in human Hep3B cells assessed as late apoptotic cells at 25 nM incubated for 48 hrs in presence of chloroquine by Annexin V-FITC/PI staining based flow cytometry method (reference value: 3.5%); format: functional
# [22] = system: Huh-7; assay: Induction of apoptosis in human Huh-7 cells assessed as necrotic cells at 25 nM incubated for 48 hrs by Annexin V-FITC/PI staining based flow cytometry method (reference value: 1.9%); format: functional
# [23] = system: Huh-7; assay: Induction of apoptosis in human Huh-7 cells assessed as viable cells at 25 nM incubated for 48 hrs in presence of 4,6-dimorpholino-N-(4-nitrophenyl)-1,3,5-triazin-2-amine by Annexin V-FITC/PI staining based flow cytometry method (reference value: 90.0%); format: functional; conditions: read-out: Activity
# [24] = system: Huh-7; assay: Induction of apoptosis in human Huh-7 cells assessed as early apoptotic cells at 25 nM incubated for 48 hrs in presence of 4,6-dimorpholino-N-(4-nitrophenyl)-1,3,5-triazin-2-amine by Annexin V-FITC/PI staining based flow cytometry method (reference value: 4.3%); format: functional
# [25] = system: Hep 3B2; assay: Induction of apoptosis in human Hep3B cells assessed as upregulation of PARP level […] incubated for 48 hrs in presence of 4,6-dimorpholino-N-(4-nitrophenyl)-1,3,5-triazin-2-amine by immunoblot analysis; format: functional, cell-based
# [26] = system: Hep 3B2; assay: Induction of apoptosis in human Hep3B cells assessed as upregulation of caspase-3 level […] incubated for 48 hrs in presence of 4,6-dimorpholino-N-(4-nitrophenyl)-1,3,5-triazin-2-amine by immunoblot analysis; format: functional, cell-based
# [27] = system: Huh-7; assay: Induction of autophagy in human Huh-7 cells assessed as reduction in mTOR phosphorylation level incubated for 48 hrs by immunoblot method; format: functional, cell-based; conditions: dose 0-25 nM
# [28] = system: Huh-7; assay: Induction of autophagy in human Huh-7 cells assessed as reduction in autophagic vesicles at 25 nM incubated for 48 hrs in presence of 4,6-dimorpholino-N-(4-nitrophenyl)-1,3,5-triazin-2-amine by transmission electron microscopy based analysis; format: functional, cell-based
# [29] = system: Huh-7; assay: Induction of autophagy in human Huh-7 cells assessed as downregulation of LC3II/LC3I ratio at 25 uM incubated for 48 hrs in presence of 4,6-dimorpholino-N-(4-nitrophenyl)-1,3,5-triazin-2-amine by immunoblot analysis; format: functional, cell-based
# [30] = Toxicity in mouse assessed as effect on liver at 5 mg/kg,ip administered every second day for 3 weeks by H and E staining based microscopic method; format: organism-based; conditions: in vivo, 504 h
# [31] = Toxicity in mouse assessed as effect on serum ALT level at 5 mg/kg,ip administered every second day for 3 weeks by H and E staining based microscopic method; format: organism-based; conditions: in vivo, 504 h
# [32] = Toxicity in mouse assessed as effect on serum AST level at 5 mg/kg,ip administered every second day for 3 weeks by H and E staining based microscopic method; format: organism-based; conditions: in vivo, 504 h
structure (smiles),measurement,setting,value
CCN(CC)CCCC(C)Nc1ccnc2cc(Cl)ccc12 (configuration not stated) [CHLOROQUINE],viability at 0.01 µM,[1],93.6%
same,Activity,[2],Active
same,Activity,[3],Active
C[C@]12CC[C@H](O)C[C@H]1CC[C@@H]1[C@@H]2[C@H](O)C[C@]2(C)[C@@H](c3ccc(=O)oc3)CC[C@]12O [GAMABUFOTALIN],viability at 0.025 µM,[4],84.9%
same,Activity,[5],4.5%
same,Activity,[6],28.8%
same,Activity,[7],31.1%
same,Activity,[8],Active
same,Activity,[9],6.6%
same,Activity,[10],20.3%
same,Activity,[11],0.3%
same,Activity,[12],Active
same,Activity,[13],Active
same,Activity,[14],Active
same,Activity,[15],Active
same,Activity,[16],Active
same,Activity,[17],Active
same,Activity,[18],Active
same,Activity,[19],Active
same,viability at 0.025 µM,[20],63.9%
same,Activity,[21],17.4%
same,Activity,[22],2.1%
same,viability at 0.025 µM,[23],76.8%
same,Activity,[24],14.9%
same,Activity,[25],Active
same,Activity,[26],Active
same,Activity,[27],Dose-Dependent Effect
same,Activity,[28],Active
same,Activity,[29],Active
same,Activity,[30],Non-Toxic
same,Activity,[31],Non-Toxic
same,Activity,[32],Non-Toxic

# From ChEMBL document CHEMBL5257089, “Gamabufotalin Induces Apoptosis and Cytoprotective Autophagy through the mTOR Signaling Pathway in Hepatocellular Carcinoma” (J Nat Prod, 2023)
